# Assay results: patent US10047383B2, “Bioproduction of chemicals” (Cargill, Incorporated, priority 2013, dated 2018)
# Tests used:
# [1] = tested on: E. coli strains; assay: Growth inhibition of E. coli strains grown in the presence of 3-HP; assay type: cell-based
# [2] = tested on: H. elongata ACCase; assay: Salt effect on ACCase from the halophile; assay type: biochemical, Halomonas elongata; settings: FIG. 4, compared to the E. coli ACCase
# Procedure: Concentrations of products were measured using the Nanodrop spectophotometer.
smiles,measurement,setting,value
"O=C(O)CCO [3-HP, 3-hydroxypropionic acid]",3-HP level at which growth inhibition has been demonstrated,[1],≥ 20 g/L
"Cl.N [NH4Cl, reference compound]",effect of salt on H. elongata ACCase,[2],less affected
N.O=C(O)CCO [NH4-3-HP],effect of salt on H. elongata ACCase,[2],less affected
